Key:
Format in all cases: biochemical
MCL-1 = experiment: In vitro transcription-translation (IVTT) assay, MCL-1 reporter; details: IVTT assay, HeLa S3 lysate, sfGFP/mCherry ratio; read-out: MCL1 IC50
How it was run: (§1)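 Reporter: mCherry, P2A, then 3×FLAG-target peptide-sfGFP fusion, IRES-initiated; HeLa S3 lysate IVTT; cpd dilutions 30 μM−0.1 μM half-log in 100% DMSO (dilution-plate conc); DNA added last; 2 h, 30° C; PBS quench.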

MYC = experiment: In vitro transcription-translation (IVTT) assay, MYC reporter; details: IVTT assay, HeLa S3 lysate, MYC reporter, normalized sfGFP/mCherry ratio; half-log dilutions 30 μM-0.1 μM, 2 hrs at 30° C.
How it was run: as §1

CCNE1 = experiment: In vitro transcription-translation (IVTT) assay, CCNE1 reporter; details: HeLa S3 lysate, sfGFP/mCherry ratio
Method: In vitro transcription-translation assay setup: Each assay includes a master mix containing lysate and shared components, a 96-well plate containing compound titrations for testing, a 96-well DNA plate with reporter constructs to be tested, 96-well skirted PCR plates, and 96-well flat-bottom, black, fluorescent assay plates. Reaction materials setup: (A) Master mix—15 mL conical tube (3 mL of HeLa S3 Lysate described above; 0.6 mL of ThermoFisher Accessory Proteins (#88882); 1.2 ml of ThermoFisher Reaction Mix (#88882); 0.54 mL of nuclease-free Water); (B) 96-Well Master Mix+Compound Plate (Half-log dilutions (30 μM−0.1 μM) of 4 compounds of interest are prepared in 100% DMSO); 96-Well DNA Plate (Five DNA constructs are plated into single columns within the plate. Row 1 of the column contains nuclease free H2O, all other wells contain 110 ng/μL plasmid DNA). Reactions are started by mixing 155 μL of master mix and 3.5 μL of compound serial dilutions, then 9.1 μL of master mix+compound mixture is aliquoted across 5 96-well plates. Reactions begin with final addition of 2 μL of DNA for a 11.1 μL reaction volume in each well. The entire plate is sealed, and incubated for 2 hrs at 30° C. After 2 hrs, quench the assay using 45 μL of PBS, and transfer 50 μL to a flat-bottom black microplate Quantify the sfGFP and mCherry signals from each well on each plate, taking 3 reads of each plate, and perform data analysis below.
In vitro transcription-translation assay data analysis: Each plate is read three times in channels for both sfGFP and mCherry signals. The average signal across these 3 reads is then calculated for further analysis. Control wells containing no DNA reporter are subtracted from reporter wells in the same column to remove auto-fluorescence of the lysate. Then, the ratio of sfGFP/mCherry is calculated per well, and these ratios are averaged across the triplicate experiments on the same plate. Finally, the ratio of each titration concentration is normalized to the no drug control to create the normalized stalling metric. The error on this measurement is determined by propagating error through the averaging and normalization steps. Values are plotted and fit for IC50 determination for each test sequence and titration of compound.

SMILES	IC50 (MCL-1) [µM]	IC50 (CCNE1) [µM]	IC50 (MYC) [µM]
O=C(NCC[C@H]1CC2(CC2)CN1)O[C@@H]1[C@@H](O)CN[C@@H]1Cc1ccc(-c2cnco2)cc1 [V193018, (2R,3S,4S)-4-hydroxy-2-(4-(oxazol-5-yl)benzyl)pyrrolidin-3-yl (2-((R)-5-azaspiro[2.4]heptan-6-yl)ethyl)carbamate]	< 10	< 10	< 10
O=C(NCC[C@@H]1CCNC1)O[C@@H]1[C@@H](O)CN[C@@H]1Cc1ccc(C(F)F)cc1 [V193010, (2R,3S,4S)-2-(4-(difluoromethyl)benzyl)-4-hydroxypyrrolidin-3-yl (2-((S)-pyrrolidin-3-yl)ethyl)carbamate]	10 to 20	< 10	< 10
O=C(NCC[C@@H]1CCCCNC1)O[C@@H]1[C@@H](O)CN[C@@H]1Cc1ccc(-c2cnco2)cc1 [V193013, (2R,3S,4S)-4-hydroxy-2-{[4-(1,3-oxazol-5-yl)phenyl]methyl}pyrrolidin-3-yl N-{2-[(3S)-azepan-3-yl]ethyl}carbamate]	< 10	< 10	< 10
O=C(NCCOC(F)(F)F)O[C@@H]1[C@@H](O)CN[C@@H]1Cc1ccc(C(F)F)cc1 [V192930, (2R,3S,4S)-2-(4-(difluoromethyl)benzyl)-4-hydroxypyrrolidin-3-yl (2-(trifluoromethoxy)ethyl)carbamate]	< 10	< 10	< 10
O=C(NCC[C@@H]1CCN1)O[C@@H]1[C@@H](O)CN[C@@H]1Cc1ccc(-c2cnco2)c(F)c1 [V192991, (2R,3S,4S)-2-(3-fluoro-4-(oxazol-5-yl)benzyl)-4-hydroxypyrrolidin-3-yl (2-((S)-azetidin-2-yl)ethyl)carbamate]	< 10	< 10	< 10
O=C(NCC[C@@H]1CCN1)O[C@@H]1[C@@H](O)CN[C@@H]1Cc1ccc(C(F)F)cc1 [V193008, (2R,3S,4S)-2-{[4-(difluoromethyl)phenyl]methyl}-4-hydroxypyrrolidin-3-yl N-{2-[(2S)-azetidin-2-yl]ethyl}carbamate]	< 10	< 10	< 10
O=C(NCc1cnsc1)O[C@@H]1[C@@H](O)CN[C@@H]1Cc1ccc(C(F)F)cc1 [V192929, (2R,3S,4S)-2-(4-(difluoromethyl)benzyl)-4-hydroxypyrrolidin-3-yl (isothiazol-4-ylmethyl)carbamate]	< 10	< 10	< 10
O=C(NCC[C@@H]1CCN1)O[C@@H]1[C@@H](O)CN[C@@H]1Cc1ccc(-c2cnco2)cc1F [V192990, (2R,3S,4S)-2-(2-fluoro-4-(oxazol-5-yl)benzyl)-4-hydroxypyrrolidin-3-yl (2-((S)-azetidin-2-yl)ethyl)carbamate]	< 10	< 10	< 10
O=C(NCC[C@H]1CCCCNC1)O[C@@H]1[C@@H](O)CN[C@@H]1Cc1ccc(-c2cnco2)cc1 [V193012, (2R,3S,4S)-4-hydroxy-2-(4-(oxazol-5-yl)benzyl)pyrrolidin-3-yl (2-((R)-azepan-3-yl)ethyl)carbamate]	< 10	< 10	< 10
O=C(NCC[C@@H]1CCN1)O[C@@H]1[C@@H](O)CN[C@@H]1Cc1ccc(OC(F)F)cc1 [V192938, (2R,3S,4S)-2-{[4-(difluoromethoxy)phenyl]methyl}-4-hydroxypyrrolidin-3-yl N-{2-[(2S)-azetidin-2-yl]ethyl}carbamate]	< 10	< 10	< 10

More lines, main results first:

IC50 (MCL-1) [µM]	IC50 (CCNE1) [µM]	SMILES	IC50 (MYC) [µM]
< 10	< 10	O=C(NCc1cccc(OC(F)F)c1)O[C@@H]1[C@@H](O)CN[C@@H]1Cc1ccc(-c2cnco2)cc1 [V193068, (2R,3S,4S)-4-hydroxy-2-(4-(oxazol-5-yl)benzyl)pyrrolidin-3-yl (3-(difluoromethoxy)benzyl)carbamate]	< 10
< 10	< 10	O=C(NCc1cccc(F)c1)O[C@@H]1[C@@H](O)CN[C@@H]1Cc1ccc(-c2cnn(C(F)F)c2)cc1 [V193079, (2R,3S,4S)-2-(4-(1-(difluoromethyl)-1H-pyrazol-4-yl)benzyl)-4-hydroxypyrrolidin-3-yl (3-fluorobenzyl)carbamate]	< 10
< 10	< 10	O=C(NCc1ccc2c(c1)CNC2)O[C@@H]1[C@@H](O)CN[C@@H]1Cc1ccc(-c2cc(C(F)F)cs2)cc1 [V193165, (2R,3S,4S)-2-(4-(4-(difluoromethyl)thiophen-2-yl)benzyl)-4-hydroxypyrrolidin-3-yl (isoindolin-5-ylmethyl)carbamate]	< 10
< 10	< 10	O=C(NCC[C@@H]1CCNC1)O[C@@H]1[C@@H](O)CN[C@@H]1Cc1ccc(-c2cnn(C(F)F)c2)cc1 [V193081, (2R,3S,4S)-2-(4-(1-(difluoromethyl)-1H-pyrazol-4-yl)benzyl)-4-hydroxypyrrolidin-3-yl (2-((S)-pyrrolidin-3-yl)ethyl)carbamate]	< 10
< 10	< 10	O=C(NCc1cnn(C(F)F)c1)O[C@@H]1[C@@H](O)CN[C@@H]1Cc1ccc(-c2cnco2)cc1 [V193078, (2R,3S,4S)-4-hydroxy-2-(4-(oxazol-5-yl)benzyl)pyrrolidin-3-yl ((1-(difluoromethyl)-1H-pyrazol-4-yl)methyl)carbamate]	< 10
< 10	< 10	O=C(NCCc1cccc(F)c1)O[C@@H]1[C@@H](O)CN[C@@H]1Cc1ccc(-c2cnco2)cc1 [V193069, (2R,3S,4S)-4-hydroxy-2-(4-(oxazol-5-yl)benzyl)pyrrolidin-3-yl (3-fluorophenethyl)carbamate]	< 10
< 10	10 to 20	O=C(NCc1cccc(F)c1)O[C@@H]1[C@@H](O)CN[C@@H]1Cc1ccc(-c2cc(C(F)F)cs2)cc1 [V193142, (2R,3S,4S)-2-(4-(4-(difluoromethyl)thiophen-2-yl)benzyl)-4-hydroxypyrrolidin-3-yl (3-fluorobenzyl)carbamate]	< 10
< 10	< 10	N#Cc1csc(-c2ccc(C[C@H]3NC[C@H](O)[C@H]3OC(=O)NCc3cccc(F)c3)cc2)c1 [V193129, (2R,3S,4S)-2-(4-(4-cyanothiophene-2-yl)benzyl)-4-hydroxypyrrolidin-3-yl (3-fluorobenzyl)carbamate]	< 10
< 10	< 10	O=C(NCc1cc(F)cc(F)c1)O[C@@H]1[C@@H](O)CN[C@@H]1Cc1ccc(-c2cnco2)cc1 [V193071, (2R,3S,4S)-4-hydroxy-2-(4-(oxazol-5-yl)benzyl)pyrrolidin-3-yl (3,5-difluorobenzyl)carbamate]	< 10
< 10	< 10	O=C(NCc1cccc2c1CNC2)O[C@@H]1[C@@H](O)CN[C@@H]1Cc1ccc(C(F)F)cc1 [V193139, (2R,3S,4S)-2-(4-(difluoromethyl)benzyl)-4-hydroxypyrrolidin-3-yl (isoindolin-4-ylmethyl)carbamate]	< 10
< 10	< 10	O=C(NCc1cccc(C2CNC2)c1)O[C@@H]1[C@@H](O)CN[C@@H]1Cc1ccc(-c2cc(C(F)F)cs2)cc1 [V193243, (2R,3S,4S)-2-(4-(4-(difluoromethyl)thiophen-2-yl)benzyl)-4-hydroxypyrrolidin-3-yl (3-(azetidin-3-yl)benzyl)carbamate]	< 10
< 10	< 10	O=C(NCCOC(F)F)O[C@@H]1[C@@H](O)CN[C@@H]1Cc1ccc(-c2cnco2)cc1 [V193066, (2R,3S,4S)-4-hydroxy-2-(4-(oxazol-5-yl)benzyl)pyrrolidin-3-yl (2-(difluoromethoxy)ethyl)carbamate]	< 10

— US20250129021A1, “SMALL MOLECULE PROTEIN SYNTHESIS MODULATORS” (Interdict Bio, Inc., priority 2023, published 2025)
